Each structure is given as a SMILES string.

This series can be described thus: Human HepG2 cell viability assay in 384 well format. The series is classed as toxicity, cell-based. Further details: dose 125 nL, time 70.5 hour; concentration not given beside the values. As to conditions: HepG2 cells, read-out: Inhibition.
Take `Cn1cc(NC(=O)C2CC(c3ccccc3)C2)ccc1=O` (stereo not drawn): the cytotoxicity at 70.5 h is -15.7%.
The result for `CN(C)c1nc(NCCc2ccnn2C)ncc1F` reads 23.5%; that for `COc1cc(C(=O)N2CCCS2(=O)=O)cc(Cl)c1OC`, -9.28%; that for `CC1(C)OC(=O)N(CC(=O)N2CCC(c3ccccc3Cl)C2)C1=O` (stereo not drawn), -6.23%.
Take `CCc1nn(C)c(Cl)c1CN1C[C@H](NC(=O)CCO)[C@@H](C(C)C)C1`: the cytotoxicity at 70.5 h is -5.11%.
The figure for `O=c1ccc2c([nH]1)CCC(NCc1ccc(F)cc1)C2` (stereo not drawn) is -5.16%; for `CC(C)c1nc(CN2CCN(Cc3ccccn3)CC2)cs1` it is -3.18%; for `COc1ccc(C(=O)NCc2cccnc2N2CCOCC2)o1` it is -0.423%.
The figure for `Cc1oc(C(=O)O)cc1S(=O)(=O)Nc1cc(Br)ccc1Cl` is 1.56%; for `O=C(COCC1CC[C@H]2[C@H](CCN2c2ncccn2)O1)N1CCCC1` (stereo partly drawn) it is -6%.
Take `CC(C)(C)n1ncc2c(=O)n(CC(=O)NCc3ccccc3Cl)cnc21`: the cytotoxicity at 70.5 h was -0.0412%.
In the case of `Cc1ccc(S(=O)(=O)N2CCOc3ccccc32)cc1C(N)=O`, the cytotoxicity at 70.5 h worked out at 14%.
On to `Cc1cc(C)cc(N2CCN(C(=O)C3CN(C)C(=O)N3)CC2=O)c1` (stereo not drawn), for which the cytotoxicity at 70.5 h was -9.45%.
The figure for `c1cnc(NCc2noc3c2CN(C2CCOCC2)CC3)nc1` is -10.6%; for `O=C(CC1CCCC1)N1CC[C@H]2[C@H]1CCN2c1nncs1` it is 19.9%.
The result for `CCCN(CC)c1ccc(C(=O)N2CCCC2c2cnn(C)c2)cn1` (stereo not drawn) reads -5.94%; that for `Cc1nc(NCc2cccnc2)cc(C2COCCN2)n1` (stereo not drawn), -5.63%; that for `CC(C)CCn1ccc(NC(=O)N2CCCC2CN2CCOCC2)n1` (stereo not drawn), -7.64%.
The figure for `Cc1cc(N2Cc3cnn(CCO)c3C2)nc(-c2ccccc2O)n1` is -4.43%; for `CCN(Cc1ccoc1)C(=O)NC1CCN(CC2CCCC2)CC1` it is -6.01%; for `Cc1cccc(-c2noc(CN3CCc4c(ncn4C4CC4)C3)n2)c1` it is -13.2%.
`CC1COC2(CCN(C(=O)Cc3ccncc3)CC2)C1` (stereo not drawn): the cytotoxicity at 70.5 h is -0.819%.
For the compound `CC(=O)N1CCN(C(=O)CCc2cc(Br)cs2)CC1`, the cytotoxicity at 70.5 h is -3.42%.
With `O=S(=O)(C1CC1)N1C[C@H](Oc2ccccn2)[C@H]2OCCC[C@H]21`, the cytotoxicity at 70.5 h is -0.632%.
The figure for `Cc1ccccc1-c1noc(-c2ccc(N(C)C3CCOCC3)nc2)n1` is -2.11%; for `CN(C)c1ccccc1C(=O)N1CCOC2(CNCCOC2)C1` (stereo not drawn) it is -2.92%; for `Cc1nc(CN2CCCN(CCCc3ccccc3)CC2)no1` it is -7.12%.
Take `Cc1noc(-c2ccc(N3CCCC(C(=O)c4nccn4C)C3)nc2)n1` (stereo not drawn): the cytotoxicity at 70.5 h was -8.49%.
Regarding `Cc1nn2c(N3CCC(O)C3)cc(-c3ccccc3)nc2c1C` (stereo not drawn), the cytotoxicity at 70.5 h was -5.83%.
The figure for `c1ccc(CN2CCc3ncnc(C4CCOC4)c3CC2)nc1` (stereo not drawn) is -2.85%.
The figure for `Cc1noc([C@@H]2C[C@H]3OCC[C@H]3N(CC3CCCC3)C2)n1` is -10.4%; for `Cc1nc(N2CCOCC2)nc2c1COCC21CCN(CC(C)C)C1` (stereo not drawn) it is -5.39%; for `Cc1ncccc1NC(=O)[C@H]1C[C@@H]2CCN(Cc3nccs3)C[C@@H]2O1` it is -2.41%.
The figure for `CCc1c(C(=O)NCC2CCS(=O)(=O)C2)cnn1-c1ccc(C)cc1` (stereo not drawn) is -20%; for `COC(=O)CNC(=O)c1sc(-c2ccc(Cl)s2)nc1C` it is -3.49%; for `Cc1c(NC(=O)N(C)CCCc2cnn(C)c2)cnn1C` it is -12.2%.
On to `O=C(CC1COCCN1S(=O)(=O)c1ccccc1)NCc1ccccn1` (stereo not drawn), for which the cytotoxicity at 70.5 h is -15.7%.
The figure for `CC(C)CN1CCC(NC(=O)c2ccc(F)cc2I)CC1` is 11.3%; for `Cc1noc(C)c1C(=O)N1CCC2(CCc3ccccc3C(=O)N2)C1` (stereo not drawn) it is -4.04%.
The figure for `CN(C)S(=O)(=O)c1ccc(CN2CCCC2c2cccs2)o1` (stereo not drawn) is 15.3%; for `c1cc2c(cc1OC[C@@H]1CCCN3CCCC[C@H]13)OCCO2` it is 3.85%.
The figure for `Cc1oc(C(=O)O)cc1S(=O)(=O)Nc1c(F)cccc1-n1cccn1` is -0.99%; for `CCN(Cc1cn(CC2CCNCC2)nn1)CC1CCCO1` (stereo not drawn) it is -6.79%; for `O=C(CSC1CCCC1)N1CCN(C(=O)C2CC2c2cccs2)CC1` (stereo not drawn) it is 33.2%.
For `COc1ccc(-c2cc[nH]n2)cc1CNC1CCCC1`, the cytotoxicity at 70.5 h is -7.14%.
On to `Cc1cnn(CC(C)NCc2ccc(OCC(N)=O)cc2)c1` (stereo not drawn), for which the cytotoxicity at 70.5 h turned out to be 11.6%.
The figure for `CN(C)C(=O)CC1CC2(CCN(Cc3ccsc3)CC2)c2ccccc21` (stereo not drawn) is -16.8%; for `Cc1nc(CN2C[C@@H]3CCCO[C@@H]3[C@H](N(C)C(C)C)C2)cs1` it is -1.04%.
Turning to `O=C1CO[C@@H]2CN(Cc3cccs3)C[C@H]2N1Cc1cccnc1`, the cytotoxicity at 70.5 h is -10.9%.
Take `Cc1nnc(NC(=O)c2cc(S(=O)(=O)N3CCSCC3)c[nH]2)s1`: the cytotoxicity at 70.5 h was -0.0324%.
The figure for `N#CCCN(C(=O)CN1CCCC1C1CCCCC1)c1ccccc1` (stereo not drawn) is 11.9%; for `Cc1ccc(C(=O)NCCC2CN(C3CCCC3)CCO2)c(C)c1` (stereo not drawn) it is -4.25%.
For the compound `CCc1nnc(CN2CCN(C(=O)c3ccccn3)CC2)o1`, the cytotoxicity at 70.5 h is -21.8%.
The result for `CN(CCc1ccccn1)C(=O)C1Cc2ccccc2CN1C` (stereo not drawn) reads -10.6%.
Consider `O=S(=O)(NCc1ccccc1)NCc1nc(-c2ccncc2)n[nH]1`, for which the cytotoxicity at 70.5 h is -5.68%.
The figure for `c1cc2c(cc1CSCc1noc(C3CC3)n1)OCCO2` is -13.8%; for `CN(C)c1nc(O)cc(C2CCN(C(=O)Cc3ccccn3)C2)n1` (stereo not drawn) it is 1.91%; for `O=C1N(Cc2cccnc2)CCC12CCCNC2` (stereo not drawn) it is 10.6%.
For the compound `CC(C)NC(=O)N1CCC2(CC(=O)N(c3cccc(F)c3)C2)C1` (stereo not drawn), the cytotoxicity at 70.5 h was -12.8%.
The result for `COc1ccccc1[C@@H]1CN(Cc2ccncc2)C[C@H]1C(=O)O` reads 9.71%; that for `CN1C(=O)CCC12CCCN(C(=O)c1ccoc1)C2` (stereo not drawn), -1.96%; that for `CCn1nc(C)c2ncnc(N3CCCC(C)C3)c21` (stereo not drawn), 8.26%.
The result for `Cc1cccc(CN2CCc3[nH]nc(C(=O)N(C)C)c3C2)n1` reads 33.4%.
The figure for `COCc1nc(CNC2CCC3(CCNCC3)CC2)no1` is -8.94%; for `O=C(COc1coc(CN2CCCCCC2)cc1=O)c1ccccc1` it is 25.4%; for `CC(C)c1noc(C(C)N2CCN(Cc3ccsc3)CC2)n1` (stereo not drawn) it is -5.78%.
On to `O=C([C@H]1C[C@H]2OCC[C@H]2N(C(=O)c2ccnnc2)C1)N1CCCCO1`, for which the cytotoxicity at 70.5 h worked out at 1.65%.
The result for `CN(Cc1nc(-c2cccnc2)no1)C(=O)c1c2c(nn1C)CCCC2` reads -1.52%; that for `Cc1scc(C(=O)N2CCC3(CCCN(C)C3=O)C2)c1-c1ccccc1` (stereo not drawn), -11.2%.
The result for `N#Cc1c(F)cccc1NCCCOCC1CCOCC1` reads -3.66%; that for `CN1C(=O)C2(CCN(CCO)C2)c2ccccc21` (stereo not drawn), -5.56%.
The result for `O=C(COc1coc(CN2CCCC2)cc1=O)Nc1cc(Cl)ccc1Cl` reads -7.96%; that for `CCOC(=O)C1CC2(CCOCC2)N2CCC(=O)N12` (stereo not drawn), -6.97%.
Take `N#CC1COCCN1S(=O)(=O)c1ccc2c(c1)CCC2` (stereo not drawn): the cytotoxicity at 70.5 h is -8.31%.
With `CCCc1nc(NCCCO)c2c(n1)c(C)nn2CC`, the cytotoxicity at 70.5 h was -14%.
With `Cc1nc(NC(=O)NC2CC(=O)N(C)C2)nn1C(C)C` (stereo not drawn), the cytotoxicity at 70.5 h turned out to be 2.26%.
As to `CC(C)n1cc(C(=O)NCCCn2ccnc2)c2n[nH]c(=O)c-2c1`, the cytotoxicity at 70.5 h was -6.63%.
The result for `COc1ccc(F)cc1C(C)NC(=O)NCCCn1cncn1` (stereo not drawn) reads -2.2%; that for `Cc1cncc(C(=O)N2CCC3(CC2)NC(=O)CC3c2ccccc2)c1` (stereo not drawn), 17.7%.
The result for `O=C(C1CCCC1)N1CCC(c2n[nH]c3nccnc23)CC1` reads -1.92%; that for `CN1CCC(c2cc(CCO)ncn2)C1` (stereo not drawn), 1.56%.
The figure for `CSc1ccsc1C(=O)N1CCN(CC(C)(C)O)CC1` is -0.902%.
Turning to `Cc1cc2n(n1)CC(CNC1CCN(Cc3ccncc3)CC1)CN2` (stereo not drawn), the cytotoxicity at 70.5 h is -0.58%.
As to `CN(CC(F)(F)F)C(=O)CNC(=O)N1CCCC(C(F)(F)F)C1` (stereo not drawn), the cytotoxicity at 70.5 h was -2.98%.
The figure for `CN(C)CCn1c2c(ccc1=O)CC(NC(=O)NC1CCCC1)CC2` (stereo not drawn) is -6.88%.
Regarding `NC(=O)CN1CC2(CCC1=O)CCN(Cc1cc(F)ccc1Cl)CC2`, the cytotoxicity at 70.5 h was -11.5%.
The result for `Cc1ccc(C(=O)N2CCN(CCC(C)(C)C)CC2)c(=O)[nH]1` reads -6.54%; that for `COCCNc1ncc(-c2cccc(F)c2)c(-c2nccn2C)n1`, 11%; that for `O=C(c1ccncc1)N1CCCn2c(CN3CCCC3)nnc2C1`, -9.38%.
The result for `Cn1nc(C2CCN(C(=O)CCN3CCOCC3)CC2)c2cccnc21` reads -2.43%.
For `Cc1ccccc1CN1CCN(C(=O)c2ccn(C(C)(C)C)c2)CC1`, the cytotoxicity at 70.5 h came out at 16.3%.
The result for `CC(C)CC(=O)N1CC(=O)c2sc(Nc3ccc(F)cc3)nc2C1` reads 1.95%; that for `O=C(Nc1nccs1)NC1CCN(Cc2ccccc2)CC1`, -15.7%.
Turning to `Cc1cc(C)cc(-c2ccc(CC3(C(=O)O)CCOCC3)cc2)c1`, the cytotoxicity at 70.5 h was 31.5%.
The result for `Cc1ccc(CN2CCN(C(=O)C3CCC3)[C@@H]3CS(=O)(=O)C[C@@H]32)cc1C` reads -0.626%.
The figure for `CCN(c1ccc(C(=O)NCCN2CCOCC2)cc1)S(=O)(=O)CC` is -25.1%.
The figure for `COC[C@@]12CCC[C@@H]1CN(C(=O)COC1CCCC1)C2` is -6.5%; for `COCc1nc(CN2CC(=O)N(C)c3ccccc3C2=O)no1` it is -5.63%.

The values are drawn from ChEMBL document CHEMBL3507680, “University of Dundee, Gates Library screen for HepG2 cell viability”.
